Assay results from ChEMBL document CHEMBL2157896, “Engineering pH-gated transitions for selective and efficient double-strand DNA photocleavage in hypoxic tumors” (J Med Chem, 2011).
Calls of active or inactive are those of the source. The calls are words filed in the database; no cut-off is given here.

Legend:
Nucleic Acid [1] = assay: Induction of DNA cleavage in Escherichia coli pBR322 assessed as form3/form2 ratio at 15 uM at pH 6 to 9 after 10 mins of UV irradiation; type: nucleic-acid assay
Nucleic Acid [2] = assay: Induction of photochemical DNA cleavage in Escherichia coli pBR322 assessed as disappearance of supercoiled DNA at 15 uM in pH 8.0 phosphate buffer after 10 mins of UV irradiation; type: nucleic-acid assay
Nucleic Acid [3] = assay: Induction of photochemical DNA cleavage in Escherichia coli pBR322 assessed as form I level at 15 uM in pH 6.0 phosphate buffer measured after 4 mins of UV irradiation; type: nucleic-acid assay
Nucleic Acid [4] = assay: Induction of photochemical DNA cleavage in Escherichia coli pBR322 assessed as form I level at 15 uM in pH 6.0 phosphate buffer measured after 6 mins of UV irradiation; type: nucleic-acid assay
Nucleic Acid [5] = assay: Induction of photochemical DNA cleavage in Escherichia coli pBR322 assessed as form I level at 15 uM in pH 6.0 phosphate buffer measured after 8 mins of UV irradiation; type: nucleic-acid assay
Nucleic Acid [6] = assay: Induction of photochemical DNA cleavage in Escherichia coli pBR322 assessed as form I level at 15 uM in pH 6.0 phosphate buffer measured after 10 mins of UV irradiation; type: nucleic-acid assay
Nucleic Acid [7] = assay: Induction of photochemical DNA cleavage in Escherichia coli pBR322 assessed as form I level at 15 uM in pH 7.0 phosphate buffer measured after 0.5 mins of UV irradiation; type: nucleic-acid assay
Nucleic Acid [8] = assay: Induction of photochemical DNA cleavage in Escherichia coli pBR322 assessed as form I level at 15 uM in pH 7.0 phosphate buffer measured after 1 min of UV irradiation; type: nucleic-acid assay
Nucleic Acid [9] = assay: Induction of photochemical DNA cleavage in Escherichia coli pBR322 assessed as form I level at 15 uM in pH 7.0 phosphate buffer measured after 2 mins of UV irradiation; type: nucleic-acid assay
Nucleic Acid [10] = assay: Induction of photochemical DNA cleavage in Escherichia coli pBR322 assessed as form I level at 15 uM in pH 7.0 phosphate buffer measured after 6 mins of UV irradiation; type: nucleic-acid assay
Nucleic Acid [11] = assay: Induction of photochemical DNA cleavage in Escherichia coli pBR322 assessed as form I level at 15 uM in pH 7.0 phosphate buffer measured after 8 mins of UV irradiation; type: nucleic-acid assay
Nucleic Acid [12] = assay: Induction of photochemical DNA cleavage in Escherichia coli pBR322 assessed as form 2 level at 15 uM in pH 6.0 phosphate buffer measured after 0.5 mins of UV irradiation; type: nucleic-acid assay
Nucleic Acid [13] = assay: Induction of photochemical DNA cleavage in Escherichia coli pBR322 assessed as form 2 level at 15 uM in pH 6.0 phosphate buffer measured after 10 mins of UV irradiation; type: nucleic-acid assay
Nucleic Acid [14] = assay: Induction of photochemical DNA cleavage in Escherichia coli pBR322 assessed as form 2 level at 15 uM in pH 7.0 phosphate buffer measured after 1 min of UV irradiation; type: nucleic-acid assay
Nucleic Acid [15] = assay: Induction of photochemical DNA cleavage in Escherichia coli pBR322 assessed as form 2 level at 15 uM in pH 7.0 phosphate buffer measured after 6 mins of UV irradiation; type: nucleic-acid assay
Nucleic Acid [16] = assay: Induction of photochemical DNA cleavage in Escherichia coli pBR322 assessed as form 2 level at 15 uM in pH 7.0 phosphate buffer measured after 8 mins of UV irradiation; type: nucleic-acid assay
Nucleic Acid [17] = assay: Induction of photochemical DNA cleavage in Escherichia coli pBR322 assessed as form 2 level at 15 uM in pH 7.0 phosphate buffer measured after 10 mins of UV irradiation; type: nucleic-acid assay
Nucleic Acid [18] = assay: Induction of photochemical DNA cleavage in Escherichia coli pBR322 assessed as form 2 level at 15 uM in pH 8.0 phosphate buffer measured after 1 min of UV irradiation; type: nucleic-acid assay
Nucleic Acid [19] = assay: Induction of photochemical DNA cleavage in Escherichia coli pBR322 assessed as form 2 level at 15 uM in pH 8.0 phosphate buffer measured after 10 mins of UV irradiation; type: nucleic-acid assay
Nucleic Acid [20] = assay: Induction of photochemical DNA cleavage in Escherichia coli pBR322 assessed as form 3 level at 15 uM in pH 6.0 phosphate buffer measured after 2 mins of UV irradiation; type: nucleic-acid assay
Nucleic Acid [21] = assay: Induction of photochemical DNA cleavage in Escherichia coli pBR322 assessed as form 3 level at 15 uM in pH 6.0 phosphate buffer measured after 4 mins of UV irradiation; type: nucleic-acid assay
Nucleic Acid [22] = assay: Induction of photochemical DNA cleavage in Escherichia coli pBR322 assessed as form 3 level at 15 uM in pH 6.0 phosphate buffer measured after 6 mins of UV irradiation; type: nucleic-acid assay
Nucleic Acid [23] = assay: Induction of photochemical DNA cleavage in Escherichia coli pBR322 assessed as form 3 level at 15 uM in pH 6.0 phosphate buffer measured after 8 mins of UV irradiation; type: nucleic-acid assay
Nucleic Acid [24] = assay: Induction of photochemical DNA cleavage in Escherichia coli pBR322 assessed as form 3 level at 15 uM in pH 7.0 phosphate buffer measured after 0.5 mins of UV irradiation; type: nucleic-acid assay
Nucleic Acid [25] = assay: Induction of photochemical DNA cleavage in Escherichia coli pBR322 assessed as form 3 level at 15 uM in pH 7.0 phosphate buffer measured after 4 mins of UV irradiation; type: nucleic-acid assay
Nucleic Acid [26] = assay: Induction of photochemical DNA cleavage in Escherichia coli pBR322 assessed as form 3 level at 15 uM in pH 7.0 phosphate buffer measured after 10 mins of UV irradiation; type: nucleic-acid assay
Nucleic Acid [27] = assay: Induction of photochemical DNA cleavage in Escherichia coli pBR322 assessed as form 3 level at 15 uM in pH 8.0 phosphate buffer measured after 0.5 mins of UV irradiation; type: nucleic-acid assay
Nucleic Acid [28] = assay: Induction of photochemical DNA cleavage in Escherichia coli pBR322 assessed as form 3 level at 15 uM in pH 8.0 phosphate buffer measured after 1 min of UV irradiation; type: nucleic-acid assay
Nucleic Acid [29] = assay: Induction of photochemical DNA cleavage in Escherichia coli pBR322 assessed as form 3 level at 15 uM in pH 8.0 phosphate buffer measured after 4 mins of UV irradiation; type: nucleic-acid assay
Nucleic Acid [30] = assay: Induction of photochemical DNA cleavage in Escherichia coli pBR322 assessed as form 3 level at 15 uM in pH 8.0 phosphate buffer measured after 8 mins of UV irradiation; type: nucleic-acid assay
Nucleic Acid [31] = assay: Induction of DNA cleavage in Escherichia coli pBR322 at 10 uM in pH 6.0 phosphate buffer measured after of UV irradiation; type: nucleic-acid assay
Nucleic Acid [32] = assay: Induction of DNA cleavage in Escherichia coli pBR322 at 5 uM in pH 6.0 phosphate buffer measured after of UV irradiation; type: nucleic-acid assay
A-375 [33] = assay: Drug uptake in human A375 cells at 30 uM incubated for 30 mins by differential interference contrast microscopy; type: ADME, cell-based; details: a-375, 0.5 h
Nucleic Acid [34] = assay: Induction of DNA damage in human […] cells at 30 uM incubated for 3 hrs by single cell gel electrophoresis; type: cell-based
Nucleic Acid [35] = assay: Induction of DNA damage in human […] cells at 30 uM incubated for 3 hrs using cells exposed to UV irradiation for 20 mins by single cell gel electrophoresis; type: cell-based
A-375 [36] = assay: Phototoxicity in human A375 cells incubated for 72 hrs exposed to UV light for 10 mins by MTT assay; type: functional; details: A-375, light or radiation study

Ratio (Nucleic Acid [1]): 2
Activity (Nucleic Acid [2]): Active
Activity (Nucleic Acid [3]): 0%
Activity (Nucleic Acid [4]): 0%
Activity (Nucleic Acid [5]): 0%
Activity (Nucleic Acid [6]): 0%
Activity (Nucleic Acid [7]): 64.6%
Activity (Nucleic Acid [8]): 52.7%
Activity (Nucleic Acid [9]): 45.8%
Activity (Nucleic Acid [10]): 24.7%
Activity (Nucleic Acid [11]): 20.9%
Activity (Nucleic Acid [12]): 60%
Activity (Nucleic Acid [13]): 21.3%
Activity (Nucleic Acid [14]): 47.3%
Activity (Nucleic Acid [15]): 47.2%
Activity (Nucleic Acid [16]): 51%
Activity (Nucleic Acid [17]): 47.8%
Activity (Nucleic Acid [18]): 16.1%
Activity (Nucleic Acid [19]): 52.3%
Activity (Nucleic Acid [20]): 28.4%
Activity (Nucleic Acid [21]): 34.9%
Activity (Nucleic Acid [22]): 51.9%
Activity (Nucleic Acid [23]): 65%
Activity (Nucleic Acid [24]): 0%
Activity (Nucleic Acid [25]): 25%
Activity (Nucleic Acid [26]): 40.5%
Activity (Nucleic Acid [27]): 0%
Activity (Nucleic Acid [28]): 0%
Activity (Nucleic Acid [29]): 0%
Activity (Nucleic Acid [30]): 12.1%
Activity (Nucleic Acid [31]): 75%
Activity (Nucleic Acid [32]): 50%
Drug uptake (A-375 [33]): Active
SMILES: NCCCC[C@H](N)C(=O)NCCCC[C@H](N)C(=O)Nc1ccc(C#Cc2c(F)c(F)nc(F)c2F)cc1.O=C(O)C(F)(F)F
Activity (Nucleic Acid [34]): Active
Activity (Nucleic Acid [35]): Active
CC50 (A-375 [36]): 270 nM
